Results on one substance are retold here after patent US20260132165A1, “MODIFIED NUCLEOSIDE ANALOGUE AND USE THEREOF, AND NUCLEOSIDE ANALOGUE-CONTAINING DOUBLE-STRANDED OLIGONUCLEOTIDE AND USE THEREOF” (RIGERNA THERAPEUTICS (BEIJING) CO., LTD., priority 2023, published 2026).

“And” between values parts separate entries of the source, which are not always exact repeats. Equal entries are not always repeated.

For one data set, the system named is SOD1. The data set can be described thus: Test Example 2: inhibitory activity of NM031 conjugated siRNA on SOD1 by intrathecal administration to mice. It is filed as in vivo, C57BL/6j mice. The conditions noted are these: D9. The protocol:
6-8 Week-old C57BL/6j mice were randomly grouped into 4 groups by body weight. PBS group was dosed with siRNA-free PBS solution, RX899001 group was dosed with siRNA compound RX899001 without vector conjugation, RZ899001 group was dosed with siRNA RZ899001 (the sense strand with the Uhd conjugation at Position 4) prepared in Example 1, and RZ899008 was dosed with siRNA RZ899008 (the sense strand with the NM031 conjugation at Position 4) prepared in Example 1. Mices in each group were anesthetized with isoflurane. After anesthetization, lumbar region thereof was sprayed wet with 75% disinfecting alcohol. 10 μL (concentration […]) of siRNA drug containing PBS solvent was sucked with an insulin injection needle, the mouse lumbar region was pinched with the left-hand index finger and thumb, patella crest was propped against, and needle was held by the right hand. The needle was bent by forceps in advance, wherein the needle was first bent in the middle by 80° to 90°, then a front half part of the needle was bent in half, and the whole needle was bent in an are shape of about 60° to 90°. Mouse abdominal region was padded with an article with a thickness of about 2 cm. The needle was inserted from a joint of lumbar spines L5 and L6 of mice, and when inserting the needle, the hand was slightly inclined forwards to insert the needle. […] After completion of the injection, the needle was slowly withdrawn at uniform velocity. The administration dose to each mouse in RX899001 group, RZ899001 group and RZ899008 group was 800 μg, a total volume injected was 10 μL, and the PBS group was administered with the same volume of siRNA-free PBS solution. After the animals woke up, the animals were returned back to the animal feeding room and further fed. The day of administration was recorded as first day (D1), and the mice were sacrificed on ninth day (D9). Lumbar spine, thoracic spine and cerebellum were respectively taken and stored in the RNAlater.
RNA extraction: an appropriate amount of lumbar spine, thoracic spine and cerebellum samples were respectively taken out from the RNAlater, and smashed for 60 s in Tissuelyser type II full-automatic tissue homogenizer, and total RNAs of various tissue samples were extracted using the full-automatic nucleic acid extraction instrument and the nucleic acid extraction kit from Zhejiang Hanwei Science and Technology Co. Ltd. according to methods described in instructions. Reverse transcription reaction: 1 μg of the extracted total RNAs of various tissue samples were respectively taken, and configured into 20 μL of reverse transcription system according to a method described in kit instructions by using a reverse transcription kit (Reverse Transcription System, A3500) from Promega Corporation and selecting Oligo (dT)15 reverse transcription primers, and the reverse transcription reaction was completed. After the reaction was ended, 80 μL of RNase-Free water was added into the reverse transcription system to provide cDNA solution for Real-time PCR detection.
Real-time PCR detection: 20 μL of Real-time PCR reaction system per PCR detection well was configured according to a method described in kit instructions using SYBR™ Select Master Mix (Catalog number: 4472908) reagent from ABI company. Each detection system contained 5 μL of cDNA template obtained from the above reverse transcription reaction, 10 μL of SYBR™ Select Master Mix, 0.5 μL of 10 μM upstream primers, 0.5 μL of 10 μM downstream primers (see TABLE 5 for primer information), and 4 μL of RNase-Free H2O. The configured reaction system was subjected to Real-time PCR amplification on ABI StepOnePlus PCR instrument by a three-step method, wherein an amplification procedure was pre-denaturation at 95° C. for 10 min, then denaturation at 95° C. for 30 s, annealing at 60° C. for 30 s, and extension at 72° C. for 30 s; and processes of denaturation, annealing, and extension were repeated for 40 cycles. […]

Data set [1] has as its system target gene Superoxide Dismutase 1 (SOD1). As to the kind of experiment: Test Example 1: inhibitory activity of NM031 conjugated siRNA on SOD1 by lateral ventricular administration to mice (real-time PCR, ΔΔCt). The data set is classed as in vivo, C57BL/6j mice. As to conditions: lateral ventricle, 200 μg per mouse, D5. From the text:
In the context of the present disclosure, unless otherwise stated, Real-time PCR detection data in in vivo activity experiments involved in the present disclosure are all used for relative quantitative calculation of gene mRNA of interest in various test groups by a ΔΔCt method, and a calculation method is summarized as follows:
Taking the control group as reference, expression level of the gene mRNA of interest in the test group is normalized, and remaining expression level of the gene mRNA of interest in the […] is defined as 100%.
6-8 Week-old C57BL/6j mice were randomly grouped by body weight, 5 per group, 2 groups in total, i.e., PBS group (dosed with siRNA-free PBS solution) and RZ899008 group (dosed with siRNA RZ899008 (the sense strand with the NM031 conjugation at Position 4) prepared in Example 1). Mice in each group were anaesthetized by intraperitoneal injection of 5% chloral hydrate, and were immobilized with the cerebral stereotaxic apparatus after being anaesthetized. Head skin was cut, positioning coordinates of right lateral ventricle were found with the stereotaxic apparatus and position was marked on surface of skull, wherein the positioning coordinates of the lateral ventricle were as follows: in coordinate axes with Bregma point as an origin, ML (mediolateral, left and right of middle raphe, i.e., X-axis) value=1.2 mm, and AP (anteroposterior, bregma anterior and posterior, i.e., Y-axis) value=−0.58 mm, and DV (dorsoventral, down skull (cerebral dura mater) plane, i.e., Z-axis) value=2.2 mm. A dental electric drill was used to drill in the skull above a position of interest, and then sucked drug was injected into the lateral ventricle by a micro-dosing pump. An administration dose to each mouse in the RZ899008 group was 200 μg (dose being measured as siRNA, concentration of siRNA being 20 μg/μL, PBS buffer as a solvent), and a total injection volume was […]. PBS group was administered with the same volume of siRNA-free PBS solution. […] The day of administration was recorded as first day (D1), and the mice were sacrificed on the fifth day (D5). […]
(In qPCR the cycle at which signal appears reflects the starting amount.)

Regarding “RZ899008: siRNA, the sense strand with the NM031 conjugation at Position 4; SEQ ID NO: 3 / 2 (sense UUUNAAUCCUCACUCUAAA; antisense UUUAGAGUGAGGAUUAAAAUG; NM031 conjugate at sense position 4; modified_base 1..2 OTHER; 2'-methoxy and 5'-thiophosphate modified nucleotides; modified_base 3 OTHER; 2'-methoxy modified nucleotide; modified_base 4 OTHER; n is the synthetic nucleotide analog NM031 as described in the disclosure (e.g., NM031-1 ((1-[(2R,3R,4S,5R)-5-{[bis(4-methoxyphenyl)(phenyl)methoxy]methyl}-3,4-dihydroxyoxolan-2-yl]-3H-pyrimidin-2,4-dione)).; modified_base 5..6 OTHER; 2'-meth; modified_base 1 OTHER; 2'-methoxy and 5'-thiophosphate modified nucleotide; modified_base 2 OTHER; 2'-fluoro and 5'-thiophosphate modified nucleotide; …)”, the “Cerebellum Mean value of inhibition rate %” value stood at 67.72% with SOD1 (cerebellum, intrathecal, 800 μg per mouse) and 40.08% in data set [1] (cerebellum). The “activity compared with control molecule RZ899001 and molecule RX899001 without vector conjugation” value with SOD1 (lumbar spine, thoracic spine and cerebellum, intrathecal 800 μg per mouse) is “superior”. Besides, in the data set with SOD1 (lumbar spine, intrathecal, 800 μg per mouse), the “Lumbar spine Mean value of inhibition rate %” value was 80.09% and 78.99%. The “Thoracic spine Mean value of inhibition rate %” value in the data set with SOD1 (thoracic spine, intrathecal, 800 μg per mouse) is 78.99% and 80.09%. Besides, the “Hippocampus Mean value of inhibition rate %” value in data set [1] (administration-side hippocampus) worked out at 82.94%. Moreover, the “Parietal cortex Mean value of inhibition rate %” value in data set [1] (administration-side parietal cortex) was 73.57%.
